For `NC(=O)C(=Cc1c[nH]c2ncccc12)c1ccccc1` [compound 299, 2-phenyl-3-(1H-pyrrolo[2,3-b]pyridin-3-yl)-2-propenamide], the melting point (commonly the temperature, or range, at which the solid turns liquid) lay in the range of 222 to 224 °C.

In the case of `CCCCNC(=O)C(=Cc1c[nH]c2ncccc12)c1ccccc1` [compound 301, N-butyl-2-phenyl-3-(1H-pyrrolo[2,3-b]pyridin-3-yl)-2-propenamide], the melting point was 177 to 179 °C (dec.). For `O=C(O)C(=Cc1c[nH]c2ncccc12)c1ccccc1` [compound 300, 2-phenyl-3-(1H-pyrrolo[2,3-b]pyridin-3-yl)-2-propenoic acid], the melting point was more than 230 °C.

The values above are taken from patent publication US6486322B1, “Azaindole derivatives, process for their preparation, and their use as antitumor agents” (Pharmacia Italia S.p.A., priority 2000, dated 2002).
